Measured values as given in patent US20260317250A1, “TRIAZOLE METHANOL AS NITRIFICATION INHIBITOR FOR FERTILIZER APPLICATION” (SABIC AGRI-NUTRIENTS COMPANY, priority 2022, published 2026).

Test system: nitrification of the ammonia nitrogen (NH4—N) in the sludge
Assay: Nitrification batch test in crop soil/water sludge under nitrifying conditions
Conditions: for inhibition of nitrification of ammonia nitrogen (NH4—N) in the sludge: Tables 3 and 4, in words; for nitrification process: first 8 hours; for NH4—N Conversion Rate During First 24 Hours: dosed NH4—N 50 mg/l; for NH4—N Conversion Rate During First 24 Hours / COD / NH4—N concentration / NO3—N concentration: DCD 5.8 mg/l
Procedure: Crop soil and water were combined to form a sludge. The freshly-acquired sludge contained a high amount of nitrate nitrogen, therefore, the sludge was pretreated to reduce the chance of denitrification during analysis. Ethylene glycol was added to the sludge and the resulting sludge was purged with nitrogen gas for 24 hours to eliminate the nitrate nitrogen. After 24 hours, the sludge was aerated to eliminate the residual chemical oxygen demand (COD) which could be present. COD refers to the amount of oxygen required to degrade all oxidizable compounds in a measured sample.
A nitrification batch test was performed under nitrifying conditions. The activity of nitrification inhibitor Formula II compound was compared to that of the nitrification inhibitor dicyandiamide (DCD). COD and NH4—N were added to the sludge with one of the Formula II compound or DCD. COD, NH4—N, and NO3—N concentrations were monitored over time (t=0, 2, 4, 6, 8, 24 and 29 hours). The COD and NH4—N removal was calculated from the analysis results. Glycol was included as a reference in the test.
The pH and oxygen content were also monitored during the tests. The pH level was kept between 7 and 8 at the beginning of the tests by adding 1N HCl or 1N NaOH. Oxygen was constantly purged into the sludge solutions throughout the test to get maximum aeration.
Table 2 includes the concentrations assessed for the five batch tests. A sample concentration of approximately 10% compared to the NH4—N concentration was employed.
Values shown in brackets are below the quantification limit and are indicative. Measurements taken at time=0 were taken 60 seconds after mixing the sludge with the indicated substance. The nitrification process was nominal for both DCD and Formula II compound during the first 8 hours, then nitrification rates increased. The NH4—N and NO3—N concentrations were tested at 29 hours to verify that the nitrification process was still ongoing.

[1] = first 24 hours, Formula II compound 7.6 mg/l
[2] = time 0 h (60 seconds after mixing), dosed COD 800 mg O2/l, NH4—N 50 mg/l, Formula II compound 7.6 mg/l
[3] = time 2 h, dosed COD 800 mg O2/l, NH4—N 50 mg/l, Formula II compound 7.6 mg/l
[4] = time 4 h, dosed COD 800 mg O2/l, NH4—N 50 mg/l, Formula II compound 7.6 mg/l
[5] = time 6 h, dosed COD 800 mg O2/l, NH4—N 50 mg/l, Formula II compound 7.6 mg/l
[6] = time 8 h, dosed COD 800 mg O2/l, NH4—N 50 mg/l, Formula II compound 7.6 mg/l
[7] = time 24 h, dosed COD 800 mg O2/l, NH4—N 50 mg/l, Formula II compound 7.6 mg/l
[8] = time 29 h, dosed COD 800 mg O2/l, NH4—N 50 mg/l, Formula II compound 7.6 mg/l

How did the “inhibition of nitrification of ammonia nitrogen (NH4—N) in the sludge” value turn out when N#CNC(=N)N [DCD, dicyandiamide, reference compound] was run?
Its value is “effective at inhibiting the nitrification of the ammonia nitrogen (NH4—N) in the sludge”.

And the nitrification process (in words)?
The nitrification process was “nominal”.

What about the “NH4—N Conversion Rate During First 24 Hours” value [1] of the same compound?
Its value is 1.5 mg NH4—N/l · h.

What about the COD [2] of the same compound?
Its COD is 757 mg O2/l.

What about the “NH4—N concentration” value [2] of the same compound?
Its value is 45.9 mg/L.

What about the “NO3—N concentration” value [2] of the same compound?
The value was 8.6 mg/L.

And the COD [3]?
The COD was 558 mg O2/l.

And the “NH4—N concentration” value [3]?
The value was 43.0 mg/L.

And the “NO3—N concentration” value [3]?
The value was 5.5 mg/L.

And the COD [4]?
The COD was 360 mg O2/l.

And the “NH4—N concentration” value [4]?
Its value is 39.4 mg/L.

What about the “NO3—N concentration” value [4] of the same compound?
The value was 8.9 mg/L.

What about the COD [5] of the same compound?
The COD was 190 mg O2/l.

And the “NH4—N concentration” value [5]?
The value was 39.7 mg/L.

What about the “NO3—N concentration” value [5] of the same compound?
Its value is 7.4 mg/L.

And the COD [6]?
The COD was 121 mg O2/l.

And the “NH4—N concentration” value [6]?
The value was 33.2 mg/L.

What about the “NO3—N concentration” value [6] of the same compound?
The value was 7.3 mg/L.

What about the COD [7] of the same compound?
The COD was 48 mg O2/l.

What about the “NH4—N concentration” value [7] of the same compound?
The value was 9.9 mg/L.

And the “NO3—N concentration” value [7]?
Its value is 39.0 mg/L.

What about the “NH4—N concentration” value [8] of the same compound?
Its value is 4.0 mg/L.

And the “NO3—N concentration” value [8]?
The value was 47.2 mg/L.

Which results are given for OCn1cncn1 [Formula II compound, (1H-1,2,4-triazole-1-yl)-methanol]?
inhibition of nitrification of ammonia nitrogen (NH4—N) in the sludge: effective at inhibiting the nitrification of the ammonia nitrogen (NH4—N) in the sludge; nitrification process (in words): nominal; effectiveness at inhibiting nitrification compared with DCD (first 24 hours, in words): more effective at inhibiting nitrification during the first 24 hours; NH4—N Conversion Rate During First 24 Hours [1]: 0.9 mg NH4—N/l · h; COD [2]: 718 mg O2/l; NH4—N concentration [2]: 45.2 mg/L; NO3—N concentration [2]: 8.8 mg/L; COD [3]: 497 mg O2/l; NH4—N concentration [3]: 41.6 mg/L; NO3—N concentration [3]: 13.8 mg/L; COD [4]: 314 mg O2/l; NH4—N concentration [4]: 40.3 mg/L; NO3—N concentration [4]: 11.8 mg/L; COD [5]: 204 mg O2/l; NH4—N concentration [5]: 42.0 mg/L; NO3—N concentration [5]: 7.2 mg/L; COD [6]: 158 mg O2/l; NH4—N concentration [6]: 37.9 mg/L; NO3—N concentration [6]: < 2.3 mg/L; NO3—N concentration, indicative value in brackets (below the quantification limit) [6]: 1.5 mg/L; COD [7]: 60 mg O2/l; NH4—N concentration [7]: 23.8 mg/L; NO3—N concentration [7]: 16.2 mg/L; NH4—N concentration [8]: 22.9 mg/L; NO3—N concentration [8]: 20.4 mg/L
